Laboratory results as given in US20070003483A1, “Method of evaluating organ function” (Oxygenix Co., Ltd., priority 2003, published 2007).

Tests used:
Mrp2 [1] = experiment: Immunohistochemical analysis of subcellular Mrp2 distribution in 8-hr cold ischemia-reperfused grafts; parameters: species or system rat; details: 8-hr cold ischemia and 60-min reperfusion
From the text: To evaluate Mrp2 in hepatocytes of the grafts, the liver samples were fixed, sliced, and stained with a monoclonal antibody M2III-6, according to previous study (32). The antigen on the sections was visualized by phycoerythrin-conjugated anti-mouse IgG and observed through laser confocal microfluorography at 488 nm as described elsewhere (20, 30). In order to examine BC localization and hepatocellular internalization of Mrp2, the sections were double immunostained with a monoclonal antibody against ZO-1, another marker expressed in hepatocellular junction (33). To determine changes in the protein distribution in a semi-quantitative manner, single-stained microfluorographs of Mrp2 were converted as monochrome 8-bit images (14). The gray levels (1-256) were measured at both cytoplasmic and canalicular domains in a single hepatocytes. At least 5 different sites for each domain were chosen in a single cell to calculate the relative values of cytoplasmic intensities versus the corresponding canalicular intensities. Such a measurement was carried out in 40-60 hepatocytes in 4 different grafts to construct histograms of the percentage cytoplasmic intensities of Mrp2-associated immunoreactivities, being defined as % I-Mrp2(cyt/bc). The elevation of this index represented an increase in the Mtp2 internalization. […]

Mrp2 [2] = biological target: T1, Mrp2 (Rattus norvegicus, UniProt Q63120); experiment: In situ visualization of hepatocellular CF exclusion by intravital laser confocal microfluorography in perfused liver grafts; details: grafts perfused with 1.5 mM probenecid
T1 construct: Livers of these rats were perfused ex vivo with the oxygenated Krebs-Henseleit buffer; from tissue; host or cells: whole rat liver grafts (Wistar), perfused ex vivo
Method: (§1) Male Wistar rats (220-260 g, CLEA Japan, Tokyo) and Eisai hyperbilirubinemia rats (EHBR) (220-260 g, Sankyo Inc., Tokyo) that had been allowed free access to laboratory chow and tap water were fasted 24 hrs before experiments. Livers of these rats were perfused ex vivo with the oxygenated Krebs-Henseleit buffer as the base-line perfusate (17, 18), and stored in the University of Wisconsin solution at 4° C. for desired lengths of time (14). When necessary, rats were pretreated with an intravenous injection of liposome-encapsulated dichloromethylene diphosphonate (LDD) at 24 hrs prior to preparation of the ex-vivo liver perfusion for the cold storage according to our previous studies (14, 19). […]
Liver grafts loaded with CF using the aforementioned protocols were observed through intravital laser confocal microfluorography as described previously (14, 20, 30). […] To calibrate the fluorescence intensities, known concentrations of CF were prepared in vitro and the images were captured under the identical optical parameters of the camera. Gray levels in hepatocytes were measured by variable square window (2×2 μm^2) using digital image processor (18, 31). At least 10 different hepatocytes in the microscopic fields of interests were analyzed in a single experiment.

Mrp2 [3] = biological target: T1, Mrp2; experiment: Biliary excretion rates of carboxyfluorescein (T1/2 of dye exclusion) in whole perfused liver grafts; details: normoperfused grafts in the presence of 1.5 mM probenecid
Method: as §1
Carboxyfluorescein (CF) is an organic anion which excreted from various cells through Mrp2 (26, 27). […] Bile samples collected from these preparations were deep-frozen until the fluorescence measurements were carried out using a 96-well multi-channel fluorescence spectrophotometer. The measurements were performed under epi-illumination at 440 nm, the isosbestic wavelength of the dye which yields fluorescence at 510 nm without interference with pH values of the samples (26). […] With this assumption, biliary CF lifetimes were determined as the T1/2 of the exponential decay.

T1 sequence (Q63120 whole entry, the tested form may be a part): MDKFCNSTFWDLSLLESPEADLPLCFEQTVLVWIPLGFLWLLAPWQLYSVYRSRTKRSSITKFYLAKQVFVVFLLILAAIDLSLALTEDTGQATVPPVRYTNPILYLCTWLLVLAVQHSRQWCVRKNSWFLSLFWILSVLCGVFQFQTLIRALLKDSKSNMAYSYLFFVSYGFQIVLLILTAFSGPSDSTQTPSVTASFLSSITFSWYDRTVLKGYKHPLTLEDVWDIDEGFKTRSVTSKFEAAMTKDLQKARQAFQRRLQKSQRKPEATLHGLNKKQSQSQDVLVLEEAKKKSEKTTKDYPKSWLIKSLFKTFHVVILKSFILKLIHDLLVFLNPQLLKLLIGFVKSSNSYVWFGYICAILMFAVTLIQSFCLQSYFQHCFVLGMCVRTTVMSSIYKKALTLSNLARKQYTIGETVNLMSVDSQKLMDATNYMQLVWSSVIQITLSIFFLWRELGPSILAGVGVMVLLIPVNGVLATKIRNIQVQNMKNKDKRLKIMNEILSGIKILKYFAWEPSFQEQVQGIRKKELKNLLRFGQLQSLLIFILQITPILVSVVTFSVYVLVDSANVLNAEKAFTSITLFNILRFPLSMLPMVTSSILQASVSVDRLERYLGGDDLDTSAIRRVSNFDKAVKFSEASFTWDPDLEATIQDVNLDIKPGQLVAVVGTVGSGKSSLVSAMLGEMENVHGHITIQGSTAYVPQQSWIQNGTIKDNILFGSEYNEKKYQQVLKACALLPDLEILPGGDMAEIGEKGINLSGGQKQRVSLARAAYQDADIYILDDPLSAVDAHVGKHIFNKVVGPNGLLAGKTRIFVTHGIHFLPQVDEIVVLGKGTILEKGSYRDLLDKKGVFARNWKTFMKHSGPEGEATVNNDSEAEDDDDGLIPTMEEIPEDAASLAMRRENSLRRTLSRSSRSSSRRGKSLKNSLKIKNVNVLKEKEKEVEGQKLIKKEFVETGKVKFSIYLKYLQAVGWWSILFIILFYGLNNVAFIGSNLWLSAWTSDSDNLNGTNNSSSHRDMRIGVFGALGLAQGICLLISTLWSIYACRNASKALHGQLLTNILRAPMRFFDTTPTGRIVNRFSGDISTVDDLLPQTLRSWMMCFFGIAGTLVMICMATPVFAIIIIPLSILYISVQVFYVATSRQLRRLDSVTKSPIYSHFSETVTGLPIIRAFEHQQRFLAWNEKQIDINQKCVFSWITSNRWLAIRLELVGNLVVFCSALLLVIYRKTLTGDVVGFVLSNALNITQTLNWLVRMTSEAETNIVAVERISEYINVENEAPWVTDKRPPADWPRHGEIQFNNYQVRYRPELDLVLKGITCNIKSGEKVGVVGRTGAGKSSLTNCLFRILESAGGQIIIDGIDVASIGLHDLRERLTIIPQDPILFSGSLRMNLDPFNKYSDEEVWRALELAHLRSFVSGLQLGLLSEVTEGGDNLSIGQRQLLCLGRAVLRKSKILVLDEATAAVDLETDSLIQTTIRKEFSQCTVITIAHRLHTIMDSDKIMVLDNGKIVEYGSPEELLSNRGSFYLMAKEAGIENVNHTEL

Row | Structure (SMILES) | Mrp2 internalization (reduced BC localization, elevated cytoplasmic intensity) (Mrp2 [1]) | decay of hepatocellular CF fluorescence (Mrp2 transport) (Mrp2 [2]) | transient increase of CF concentrations in bile (Mrp2 [3])
1 | O=C(O)/C=C/c1ccc(Cn2ccnc2)cc1 [OKY-046] | attenuated | – | –
2 | CCCN(CCC)S(=O)(=O)c1ccc(C(=O)O)cc1 [probenecid] | – | substantially slowed | not observed
